Several values for one entry are separate records, joined by “and”; a condition that tells them apart may be missing. Equal entries are not always repeated.
Legend:
[1] = in vivo; cited from earlier work
[2] = Danazol concentrations in serum, peritoneal fluid and peritoneal tissue after oral or vaginal administration to female human subjects; assay type: in vivo; settings: for Systemic, Average / Systemic: serum
Protocol: The following example illustrates an administering of either a vaginal or oral formulation of danazol to female human subjects. The vaginal formulation was prepared as described above in Example 2. The oral formulation contained a total dose of 200 mg of danazol present in a capsule body of titanium dioxide and gelatin, and formulated with starch, lactose, talcum and magnesium stearate.
Subjects were administered danazol daily for five days. Six subjects were given a total dose of 600 mg of the oral danazol formulation (3×200 mg) once daily for five days. Seven subjects were given the vaginal formulation containing a total of 100 mg danazol. Samples were then taken from each subject in order to determine the concentration of danazol present systemically, in peritoneal fluid, and in peritoneal tissue. In order to quantify the amount of danazol present systemically, serum samples were collected from each subject and analyzed as described above in Example 3. In order to determine the amount of danazol present in the peritoneal fluid and tissue, endometrial lesions or suspected lesions were harvested, and the amount of danazol present in the samples was quantified as described in Example 3.

[3] = Oral - 600 mg Danazol daily for five days, average of six subjects
[4] = Oral - 600 mg Danazol daily for five days, individual subject
[5] = Vaginal - 100 mg Danazol daily for five days, average of seven subjects
[6] = Vaginal - 100 mg Danazol daily for five days, individual subject

C#C[C@]1(O)CC[C@H]2[C@@H]3CCC4=Cc5oncc5C[C@]4(C)[C@H]3CC[C@@]21C [Danazol]
half-life [1]: 9.7 h
Peritoneal Fluid, Average [2, 3]: 83.4 ng/mL
Peritoneal Fluid [2, 4]: 134 ng/mL and 16.2 ng/mL and 132.8 ng/mL and 19.2 ng/mL and 130.7 ng/mL and 67.7 ng/mL
Systemic, Average [2, 3]: 156.5 ng/mL
Systemic [2, 4]: 209 ng/mL and 141.3 ng/mL and 167 ng/mL and 109.7 ng/mL and 198.3 ng/mL and 113.4 ng/mL
Estimated Peritoneal Tissue, Average [2, 5]: 16.5 ng/mg
Peritoneal Fluid, Average [2, 5]: 1.2 ng/mL
Estimated Peritoneal Tissue [2, 6]: 8.4 ng/mg and 13.2 ng/mg and 13.6 ng/mg and 17.2 ng/mg and 16.4 ng/mg and 29.2 ng/mg and 17.6 ng/mg
Peritoneal Fluid [2, 6]: 1 ng/mL (4×) and 1.2 ng/mL and 1.6 ng/mL and 1.8 ng/mL
Systemic, Average [2, 5]: 4.1 ng/mL
Systemic [2, 6]: 2.1 ng/mL and 3.3 ng/mL and 3.4 ng/mL and 4.3 ng/mL and 4.1 ng/mL and 7.3 ng/mL and 4.4 ng/mL
